Measurements taken from US5425935A, “Imaging of infections” (British Technology Group Limited, priority 1991, dated 1995).

What was measured:
[1] = Extent of complexation with Tc-99m prior to purification; format: physicochemical
Method: A further sample of Tc-99m-CIP complex was obtained as generally described in Example 1. Samples of Tc-99m complexed ofloxacin (obtained in powder form from Hoechst) and norfloxacin (obtained in powder form from Merck Sharpe & Dohme) were obtained as described for ciprofloxacin. Prior to purification, it was determined that the extent of complexation percent was as follows: […]

[2] = system: Pseudomonas aboubinoba (PA); test: Take up of Tc-99m complexes by Pseudomonas aboubinoba (PA), percentage radionuclide retained; format: cell-based; conditions: for percent radionuclide retained in the microorganism: 4 hours' incubation, purified complexes
[3] = system: Staphylococcus aureus (SA); test: Take up of Tc-99m complexes by Staphylococcus aureus (SA), percentage radionuclide retained; format: cell-based; conditions: for percent radionuclide retained in the microorganism: 4 hours' incubation, purified complexes
Escherichia coli (EC) = test: Take up of Tc-99m complexes by Escherichia coli (EC), percentage radionuclide retained; format: cell-based; conditions: for percent radionuclide retained in the microorganism: 4 hours' incubation, purified complexes
[4] = 2 hr. incubation, not further purified
[5] = 4 hr. incubation, not further purified
[6] = 21 hr. incubation, CIP not further purified

Row | SMILES | extent of complexation percent [1] | percentage radionuclide retained in the microorganisms [2, 4] | percent radionuclide retained in the microorganism [2] | percentage radionuclide retained in the microorganisms [2, 5] | percentage radionuclide retained in the microorganisms [2, 6] | percentage radionuclide retained in the microorganisms [3, 4] | percent radionuclide retained in the microorganism [3] | percentage radionuclide retained in the microorganisms [3, 5] | percentage radionuclide retained in the microorganisms [3, 6] | percentage radionuclide retained in the microorganisms (Escherichia coli (EC); [4]) | percent radionuclide retained in the microorganism (Escherichia coli (EC)) | percentage radionuclide retained in the microorganisms (Escherichia coli (EC); [5]) | percentage radionuclide retained in the microorganisms (Escherichia coli (EC); [6])
1 | O=C(O)c1cn(C2CC2)c2cc(N3CCNCC3)c(F)cc2c1=O [Tc-99m-ciprofloxacin, metal not drawn] | 51.7% | 24.14 percentage | 50.20% | 16.67 percentage | 21.32 percentage | 17.24 percentage | 58.47% | 14.63 percentage | 15.08 percentage | 15.78 percentage | 43.89% | 11.72 percentage | 12.90 percentage
2 | CCn1cc(C(=O)O)c(=O)c2cc(F)c(N3CCNCC3)cc21 [norfloxacin] | 76.5% |  | 44.53% |  |  |  | 37.86% |  |  |  | 48.28% |  | 
3 | CC1COc2c(N3CCN(C)CC3)c(F)cc3c(=O)c(C(=O)O)cn1c23 (stereo not drawn) [ofloxacin] | 88.5% |  | 79.39% |  |  |  | 76.94% |  |  |  | 77.95% |  | 
